Measured values published in patent US10030016B2 (Sunesis Pharmaceuticals, Inc., priority 2009, dated 2018).
pEC50, pIC50: −log10 of the molar value. Structures can show the parent of a compound that is named as a salt. Where two headings read alike, the source gives them in different places.

Experiments:
PDK1 = PDK1 (Homo sapiens (Human), UniProt O15530); test: PDK1 kinase assay (coupled PDK1/AKT/FAM-crosstide assay, IMAP fluorescence polarization); format: biochemical
Procedure, shortened: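 Inhibition is derived by 4-parameter fitting of ΔmP from an IMAP fluorescence polarization read of FAM-crosstide (100 nM) phosphorylation. The cascade ran 30 min at 25 °C with 40 μM ATP, using insect-cell GST-PDK1 51-359 (0.75 nM) driving 10 nM unphosphorylated AKT2 140-467-PIFtide fusion.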

[1] = system: phospho-akt (Thr308) in PC-3 cells; test: Inhibition of phospho-akt (Thr308) in PC-3 cells, MSD phospho-akt 308 ELISA kit; format: cell-based; settings: Homo sapiens, 2 hours, no serum, read-out: EC50
Procedure, shortened: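 PC-3 cells (15,000/well, overnight in 10% FBS medium) treated 2 h with three-fold diluted compounds in serum-free medium; DMSO high and 5 μM wortmannin low controls. Lysates captured on BSA-blocked MSD plates overnight at 4 °C, then 1 h antibody detection at RT; phospho-Akt Thr308 read by MSD electrochemiluminescence.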

[2] = inhibition of phospo-PDK1 in vitro
[3] = inhibition of P308 Akt in PC-3 cells, MSD
[4] = inhibition of P308 Akt in PC-3 cells using MSD

Sequence of PDK1 (O15530 51-359): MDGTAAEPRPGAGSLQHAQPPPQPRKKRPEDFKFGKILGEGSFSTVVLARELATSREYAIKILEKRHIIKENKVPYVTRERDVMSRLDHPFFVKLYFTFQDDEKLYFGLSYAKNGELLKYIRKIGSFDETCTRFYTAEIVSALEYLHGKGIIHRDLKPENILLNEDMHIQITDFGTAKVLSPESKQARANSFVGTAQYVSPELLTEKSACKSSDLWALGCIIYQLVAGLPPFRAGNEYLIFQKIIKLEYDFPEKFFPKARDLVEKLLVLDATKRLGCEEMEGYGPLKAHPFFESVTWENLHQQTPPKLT

| pIC50 (PDK1; [2]) | pEC50 [1, 3] | pIC50 (PDK1; inhibition of PDK1 in vitro) | pEC50 [1, 4] | SMILES |
| --- | --- | --- | --- | --- |
| 6.00 to 7.00 | 5.00 to 6.00 | – | – | Nc1ncnc2ccc(-c3ccc(CNc4ncccc4C(=O)Nc4ccc(F)c(Cl)c4)s3)cc12 [Example 3.49, 2-({[5-(4-aminoquinazolin-6-yl)thiophen-2-yl]methyl}amino)-N-(3-chloro-4-fluorophenyl) pyridine-3-carboxamide (TFA salt)] |
| 6.00 to 7.00 | 5.00 to 6.00 | – | – | CC(C)[C@H](NC(=O)c1cccnc1NCc1ccc(-c2ccc3ncnc(N)c3c2)s1)c1ccc(F)cc1 [Example 3.45, (S)-2-((5-(4-aminoquinazolin-6-yl)thiophen-2-yl)methylamino)-N-(1-(4-fluorophenyl)-2-methylpropyl)nicotinamide (TFA salt)] |
| – | – | > 7.00 | < 5.00 | C[C@H](NC(=O)c1cc(C#N)cnc1NCc1ccc(-c2cnc3[nH]nc(CN(C)C)c3c2)cc1)c1ccc(F)cc1 [Example 151, (S)-5-cyano-2-(4-(3-((dimethylamino)methyl)-1H-pyrazolo[3,4-b]pyridin-5-yl)benzyl-amino)-N-(1-(4-fluorophenyl)ethyl) nicotinamide] |
| – | – | > 7.00 | 5.00 to 6.00 | C[C@H](NC(=O)c1cc(C#N)cnc1Nc1ccc(-c2cnc3[nH]nc(N)c3c2)cc1)c1ccc(F)cc1 [Example 424, (S)-2-(4-(3-amino-1H-pyrazolo[3,4-b]pyridin-5-yl)phenylamino)-5-cyano-N-(1-(4-fluorophenyl)ethyl)nicotinamide] |
| – | – | > 7.00 | > 6.00 | CNc1ncc2cc(OCCNc3ncc(C#N)cc3C(=O)N[C@@H](C)c3ccc(F)cc3)ccc2n1 [Example 250, (S)-5-cyano-N-(1-(4-fluorophenyl)ethyl)-2-(2-(2-(methylamino)quinazolin-6-yloxy)ethylamino)nicotinamide] |
| – | – | > 7.00 | 5.00 to 6.00 | Nc1n[nH]c2ncc(-c3ccc(CNc4ncc(C(F)(F)F)cc4C(=O)Nc4cccc(C(F)(F)F)c4)cc3)cc12 [Example 294] |
| < 5.30 | < 5.00 | – | – | C[C@H](NC(=O)c1cccnc1NCc1ccc(-c2ccc3nccnc3c2)s1)c1ccc(F)c(F)c1 [Example 4.31] |
| – | – | > 7.00 | > 6.00 | C[C@H](NC(=O)c1nc(C#N)cnc1NCc1ccc(-c2cnc(N)c(OCCN)n2)cc1)c1ccc(F)c(F)c1 [Example 167, 3-{4-[5-Amino-6-(2-amino-ethoxy)-pyrazin-2-yl]-benzylamino}-6-cyano-pyrazine-2-carboxylic acid [(S)-1-(3,4-difluoro-phenyl)-ethyl]-amide] |
| – | – | > 7.00 | > 6.00 | C[C@H](NC(=O)c1nc(C#N)cnc1NCc1ccc(-c2cn(CCN)c3ncnc(N)c23)cc1)c1ccc(F)c(F)c1 [Example 319, (S)-3-(4-(4-amino-7-(2-aminoethyl)-7H-pyrrolo[2,3-d]pyrimidin-5-yl)benzylamino)-6-cyano-N-(1-(3,4-difluoro-phenyl)ethyl)pyrazine-2-carboxamide] |
| – | – | > 7.00 | 5.00 to 6.00 | C[C@@H](Nc1ncc(C(F)(F)F)cc1C(=O)Nc1ccc(F)cc1)c1ccc(-c2c[nH]c3ncnc(N)c23)cc1 [Example 433, 2-{(R)-1-[4-(4-Amino-7H-pyrrolo[2,3-d]pyrimidin-5-yl)-phenyl]-ethylamino}-N-(4-fluoro-phenyl)-5-trifluoromethyl-nicotinamide] |
| > 7.00 | > 6.00 | – | – | Cc1n[nH]cc1/C=C1\C(=O)Nc2cc(/C=C/CNc3ncccc3C(=O)NCc3ccc(F)c(F)c3)ccc21 [Example 15.10, N-(3,4-Difluoro-benzyl)-2-((E)-3-{3-[1-(3-methyl-1H-pyrazol-4-yl)-meth-(Z)-ylidene]-2-oxo-2,3-dihydro-1H-indol-6-yl}-allylamino)-nicotinamide] |
| – | – | 5.30 to 6.00 | < 5.00 | N#Cc1cnc(NCc2ccc(Oc3cc(N)ncn3)cc2)c(C(=O)NCc2ccc(F)c(F)c2)c1 [Example 314, 2-(4-(6-aminopyrimidin-4-yloxy)benzylamino)-5-cyano-N-(3,4-difluorobenzyl)nicotinamide] |
